Measured values: PubChem BioAssay AID449750 (Broad Institute, 2010)
The source made the active and inactive calls. No rule for the calls is given here.

Experiment: non-covalent RecA intein splicing inhibitors, dose response, biochemical, cell-free, fluorescence, secondary screen (AID 449750)

Compound	AC50
CN(N)C(=S)Nc1ccc(Cl)cc1	> 38 µM (inactive)
CCC(C)Nc1nc(Cl)nc(N(C#N)CN2C(=O)c3ccccc3S2(=O)=O)n1 (stereo not drawn)	> 38 µM (inactive)
Cc1ccc(NC2=C(NC(=O)c3ccccc3)C(=O)c3ccccc3C2=O)cc1Cl	7.45 µM
CCc1[nH]nc2c1C(c1cccnc1)C(C#N)=C(N)O2 (stereo not drawn)	> 38 µM (inactive)
CCOc1ccc(/C=C2\SC(=S)N(CCC(=O)Nc3ccccc3C(=O)O)C2=O)cc1	18.3 µM
O=c1[nH]c(Nc2ccccn2)cc2ccccc12	> 38 µM (inactive)
COc1cc(NC2CCCCC2O)c2nc(-c3ccc(Cl)cc3)ccc2c1 (stereo not drawn)	9.05 µM
Cc1nnc(N/N=C\c2ccc(-c3ccccc3[N+](=O)[O-])o2)n1N	> 38 µM (inactive)
Cc1ccc(S(=O)(=O)NC(=O)Nc2ccc(N(C)C)cc2)cc1	31 µM
COC(=O)CC1=NN(c2nc(C)cc(C)n2)C(=O)C1	> 38 µM (inactive)
CN1C(=O)/C(=N\OC(=O)c2cccc3ccccc23)c2ccccc21	> 38 µM (inactive)
Cc1[nH]n(-c2ccccc2)c(=O)c1C(C[N+](=O)[O-])c1ccccc1Cl (stereo not drawn)	7.38 µM
CC1=NN(c2ccccc2)C(=O)C1=C(C)C	15.9 µM
Cc1[nH]nc2c1C(c1ccc(OC(=O)c3ccco3)cc1)C(C#N)=C(N)O2 (stereo not drawn)	> 38 µM (inactive)
Cc1[nH]n(-c2ccccc2)c(=O)c1/C=C1/C=c2ccccc2=N1	> 38 µM (inactive)
CCOc1ccccc1Oc1coc2cc(OC(=O)c3ccco3)ccc2c1=O	> 38 µM (inactive)
COc1ccc(C(=O)N/N=C\c2coc3ccc(Cl)cc3c2=O)cc1	> 38 µM (inactive)
N#Cc1c(-c2ccccc2)nc(SCC(=O)N2c3ccccc3Sc3ccccc32)[nH]c1=O	8.24 µM
CC1CCc2c(c3ccccc3n2C(=O)CCl)C1 (stereo not drawn)	6.54 µM
COc1ccc(OC)c(C2C(C#N)=C(N)Oc3c2c(C)nn3-c2ccc(C)cc2)c1 (stereo not drawn)	31.1 µM
CCOc1ccc(N2C(=O)/C(=C\c3ccc(O)c(OC)c3)S(=O)(=O)C2c2cccc([N+](=O)[O-])c2)cc1 (stereo not drawn)	> 38 µM (inactive)
Cc1[nH][nH]c(=O)c1C(c1ccc2c(c1)OCO2)c1c(C)[nH][nH]c1=O	19 µM

Compound	AC50
CN(CCc1cnn(C)c1)C(=O)C1CCC(=O)N(CC2CCCCC2)C1 (stereo not drawn)	> 38 µM (inactive)
CCCc1[nH]nc2c1C(c1ccc(OC)cc1OC)C(C#N)=C(N)O2 (stereo not drawn)	32.3 µM
O=C(CCl)Nc1cc(-c2ccccc2)nn1-c1ccccc1	9.05 µM
O=C(Nc1ccccc1)C1=C(c2ccccc2)S(=O)(=O)CCS1(=O)=O	> 38 µM (inactive)
Cc1ccccc1NC1=C/C(=N\S(=O)(=O)c2ccc(C(=O)O)cc2)c2ccccc2C1=O	14.7 µM
CC1(C)CC2(C)OC(=N)C1(C#N)C2(C#N)C#N (stereo not drawn)	> 38 µM (inactive)
N#CCCN(C(=O)CCl)c1cccc(Cl)c1	38.9 µM
COc1cccc(-c2[nH]nc3c2C(c2ccsc2)C(C#N)=C(N)O3)c1 (stereo not drawn)	5.11 µM
CCOc1cc(/C=C(/C#N)C(=O)Nc2ccc(O)cc2)cc(Br)c1O	> 38 µM (inactive)
CC1CCc2c(sc3nc(C(C)(C)C)nc(N4CCN(C(=O)CCl)CC4)c23)C1 (stereo not drawn)	2.61 µM
O=[N+]([O-])C(/C=C(\Cl)[N+](=O)[O-])=C1N(Cc2ccc(Cl)nc2)CCN1Cc1ccc(Cl)nc1	> 38 µM (inactive)
COc1ccc(S(=O)(=O)Nc2c(O)ccc3ccccc23)cc1OC	22.9 µM
O=C(NNC(=O)c1ccc2ccccc2c1O)c1ccccc1Cl	> 38 µM (inactive)
O=C(c1cccc(C(F)(F)F)c1)C1CCCN(Cc2ncc[nH]2)C1 (stereo not drawn)	> 38 µM (inactive)
O=C(CCl)Nc1ccc(N2CCCCCC2)cc1	6.59 µM
CCCc1[nH]nc2c1C(c1cccc(OC)c1)C(C#N)=C(N)O2 (stereo not drawn)	> 38 µM (inactive)
O=C(O)c1ccc(-n2c(=O)c3ccccc3c3ccccc3c2=O)cc1	> 38 µM (inactive)
COC(=O)c1cc(C)nc2c1C(=O)C(=O)C=C2N1CCOCC1	1.16 µM
CC(C)=CCC/C(C)=C/Cc1c(O)ccc(C(=O)/C=C/c2ccc(O)cc2)c1O	16.4 µM
Cn1c(SCC(=O)NCC2CCCO2)ncc(C(=O)Nc2ccccc2)c1=O (stereo not drawn)	> 38 µM (inactive)
Cc1cccc(NC2=C(Cl)C(=O)OC2OC(=O)c2ccco2)c1 (stereo not drawn)	> 38 µM (inactive)
CC(CCc1ccccc1)NC(=O)COC(=O)c1cc(NS(=O)(=O)c2ccc(Cl)c([N+](=O)[O-])c2)ccc1O (stereo not drawn)	18.8 µM

Compound	AC50
Cc1[nH][nH]c(=O)c1C(c1cc(Br)ccc1O)c1c(C)[nH][nH]c1=O	8.35 µM
O=C(O)c1ccc2c3c(ncnc13)-c1ccccc1C2=O	7.47 µM
Nc1ccc(N(CCO)CCO)cc1	> 38 µM (inactive)
COc1ccccc1Nc1cc2cc(Br)ccc2c(=O)[nH]1	6.07 µM
CCOC(=O)C1=C(O)c2ccccc2C(=O)/C1=C\c1ccc(CC)cc1	7.05 µM
CCN1CCN(C(c2cccnc2)c2cc(Cl)c3cccnc3c2O)CC1 (stereo not drawn)	16 µM
O=[N+]([O-])c1ccc(S(=O)(=O)c2cccc(C(F)(F)F)c2)nc1	> 38 µM (inactive)
COc1ccccc1NC(=O)C1=C(C)Nc2nnnn2C1c1ccncc1 (stereo not drawn)	> 38 µM (inactive)
O=C(CCNc1cccc(F)c1)c1cccc([N+](=O)[O-])c1	> 38 µM (inactive)
CCCc1[nH]nc2c1C(c1ccccc1OC)C(C#N)=C(N)O2 (stereo not drawn)	> 38 µM (inactive)
Cn1ncnc2c(=O)n(C)c(=O)nc1-2	0.0837 µM
O=C(CCl)N(C/C=C/c1ccccc1)c1ccc2c(c1)OCCO2	1.12 µM
O=C1/C(=C/Nc2cccc([N+](=O)[O-])c2)CCc2ccccc21	> 38 µM (inactive)
O=[N+]([O-])C(/C=C(/Cl)[N+](=O)[O-])=C(N1CCCCC1)N1CCCCC1	> 38 µM (inactive)
CC(C)(C)c1cc[n+](C2=C([O-])c3ccccc3C(=O)/C2=N\S(=O)(=O)c2cccs2)cc1	8.96 µM
CC1=C(C(=O)OC(C)C)C2(O)C(=O)c3ccccc3C2(O)N1 (stereo not drawn)	9.7 µM
C/C(CC(=O)NCc1ccco1)=N\NC(=O)c1ccc([N+](=O)[O-])cc1Cl	> 38 µM (inactive)
NS(=O)(=O)c1ccc(N=Cc2c(O)c3ccccc3oc2=O)cc1	> 38 µM (inactive)
CC(C)(C)c1cnnn1-c1ccc(C(=O)CCl)cc1	> 38 µM (inactive)
CC1=NN(c2ccccc2)C(=O)/C1=C/c1c(O)[nH]c(=O)[nH]c1=O	> 38 µM (inactive)
CCNC1=C(Cl)C(=O)c2ccccc2C1=O	22.3 µM
O=S(=O)(c1ccc(Cl)c(Cl)c1)c1snnc1-c1ccccc1	9.72 µM

Compound	AC50
Cc1cccc(C)c1NC(=O)c1nc(S(=O)(=O)Cc2ccccc2)ncc1Cl	> 38 µM (inactive)
O=C(CCl)NC(=O)NC12CC3CC(CC(C3)C1)C2	13.3 µM
CC1=NN(Cc2ccccc2)C(=O)C1C(c1ccncc1)C(C#N)C#N (stereo not drawn)	> 38 µM (inactive)
O=C(C(=C1N(Cc2ccc(Cl)nc2)CCN1Cc1ccc(Cl)nc1)[N+](=O)[O-])C(Cl)Cl	> 38 µM (inactive)
Cc1ccccc1C(CC(=O)c1cccs1)C(C#N)C#N (stereo not drawn)	6.53 µM
COc1ccc2[nH]c(CN3CCC(CO)(CCOc4ccccc4)CC3)c(C)c2c1	> 38 µM (inactive)
O=C1C2=C(c3ccccc31)[N+](=O)C1CCCCC1N2[O-] (stereo not drawn)	18.3 µM
C/C(=N\NC(=O)Cc1cc(=O)[nH][nH]1)c1cccc([N+](=O)[O-])c1	30.5 µM
CC(=O)N(C1=C(N)C(=O)c2ccccc2C1=O)c1ccccc1	10.6 µM
O=C(CCCN1C(=O)/C(=C/c2ccccc2)SC1=S)Nc1ccc(O)cc1	> 38 µM (inactive)
CC(=O)Nc1ccccc1NC(=O)C/C(C)=N/NC(=O)C(=O)N1CCCCC1	> 38 µM (inactive)
COc1ccccc1-c1cc(C(F)(F)F)nc(S(=O)(=O)CCCC(=O)N2CCOCC2)n1	13.6 µM
CS(=O)(=O)C1=NSC2=NC(=O)/C(=C\c3ccc(OC(=O)c4ccco4)cc3)C(=N)N21	> 38 µM (inactive)
COc1ccc(N2C(=O)CC(N(CCc3ccccc3)C(=O)/C=C/C(=O)O)C2=O)cc1 (stereo not drawn)	> 38 µM (inactive)
CCOC1=C/C(=C/c2c(N)n3oc(C)cc3nc2=O)C=CC1=O	> 38 µM (inactive)
CCOC(=O)CNc1nnc(SCC(=O)OCC)[nH]c1=O	10.2 µM
COc1ccc(-n2c(C)cc(C(=O)CCl)c2C)cc1	13.6 µM
CC1=NN(c2ccc(Cl)c(C(=O)O)c2)C(=O)C1	3.21 µM
CC1=NNC(=O)C1Cc1ccccc1 (stereo not drawn)	> 38 µM (inactive)
Cc1nc([N+](=O)[O-])c(Sc2nc3ccccc3[nH]2)n1Cc1ccccc1	> 38 µM (inactive)
O=C(O)CC1S/C(=N/N=C/c2ccc(-c3ccc(Cl)cc3[N+](=O)[O-])o2)NC1=O (stereo not drawn)	4.67 µM
O=C(NC1CCCC1)C(c1ccc(F)cc1)N(Cc1ccccc1Cl)C(=O)CCl (stereo not drawn)	0.802 µM
